# Reference: patent US11324750B2, “Compositions and methods for the treatment of severe acute respiratory syndrome coronavirus 2 (SARS-CoV-2) infection” (Children's Hospital Medical Center, priority 2020, dated 2022)
# Test system: severe COVID-19 patients
# Assay: Randomized controlled trial, safety: adverse events up to day 28
# Format: in vivo, human
# Details: for ALT increase, % patients / ALT increase, n patients / AST increase, % patients / AST increase, n patients / Acute heart failure, n patients / Alkaline phosphatase increase, % patients / Alkaline phosphatase increase, n patients / Anemia, % patients / Anemia, n patients / Chemical laboratory abnormalities, % patients / Chemical laboratory abnormalities, n patients / Decreased appetite, % patients / Decreased appetite, n patients / Dizziness, % patients / Dizziness, n patients / Headache, % patients / Headache, n patients / Hematological adverse events, % patients / Hematological adverse events, n patients / Hypercholesterolemia, % patients / Hypercholesterolemia, n patients / Hypertension, % patients / Hypertension, n patients / Hypertriglyceridemia, n patients / Hypoalbuminemia, % patients / Hypoalbuminemia, n patients / Hypocalcemia, % patients / Hypocalcemia, n patients / Hypochloremia, % patients / Hypochloremia, n patients / Hypokalemia, % patients / Hypokalemia, n patients / Lymphocytopenia, % patients / Lymphocytopenia, n patients / Nausea, % patients / Nausea, n patients / Neutrocytopenia, % patients / Neutrocytopenia, n patients / Rash, % patients / Rash, n patients / Secondary Infection, n patients / Sepsis, n patients / Serious adverse events, n patients / Shock, n patients / Thrombocytopenia, % patients / Thrombocytopenia, n patients / γ-GT increase, % patients / γ-GT increase, n patients / Adverse events, % patients / Adverse events, n patients: N = 20, through day 28; for Adverse events, % patients / Adverse events, n patients: line above headache, dizziness, rash, nausea, decreased appetite, hypertension
# Text: As of the effective date of this application, no therapeutics have yet been proven effective for the treatment of severe COVID-19 with cytokine storm. Ruxolitinib, a potent and selective oral inhibitor of Janus kinase (JAK) 1 and JAK2, was proposed by Applicant to be beneficial in the treatment of cytokine storm. Applicant conducted a prospective, multicenter, single-blind, randomized controlled trial involving participants diagnosed as severe COVID-19 patients. The enrolled patients were randomly separated into two groups with a 1:1 allocation by an independent statistician in blocks of 4 for all 3 sites. Study number and treatment allocation codes were provided in sequentially numbered opaque envelops. Intervention group is treated with ongoing oral intake 5 mg of ruxolitinib (Jakafi®, Novartis Pharma Stein AG, Switzerland) twice a day based on the standard-of-care (SoC); the control group is treated with placebo plus SoC. The primary endpoint was the incidence of serious adverse events occurring up to 28 days and the time to clinical improvement. The secondary endpoint is the overall mortality at D28. This trial is registered at www.chictr.org.cn as ChiCTR-OPN-2000029580.
# Procedures. The first day of randomization was designated as D0. The second and the fourth day after randomization were designated D1 and D3, respectively. Dx referred to the day when either disease progressed according to the Chinese management guideline for COVID-19 (version 5.0) or defined as a one-category increase on the seven-category scale. Dend was the day before discharge. The enrolled patients were randomly separated into two groups: the treatment group (group B) received oral intake of ruxolitinib (Jakafi®, Novartis Pharma Stein AG, Switzerland) 5 mg twice a day plus standard-of-care (SoC); the control group (group A) is treated with placebo twice a day with SoC. The SoC included supplemental oxygen, noninvasive and invasive ventilation, corticosteroid, antibiotic agents, vasopressor support, renal-replacement therapy, and extracorporeal membrane oxygenation (ECMO) etc. Safety was monitored daily by two independent senior physicians from the trial center. Adverse events were classified according to the National Cancer Institute Common Terminology Criteria for Adverse Events, version 5.0. Non-contrast enhanced chest CT examinations were performed on D0 and followed-up at least once within two weeks. Additional chest CT may be performed if the condition deteriorated. All CT images were reviewed using Picture archiving and communication system (PACS). The CT features of improvement were evaluated by two independent senior radiologists blindly, which should at least meet one of the following criteria: decreased presence of ground-glass opacities (GGO), decreased lung opacification, reduced density of consolidation or decreased pleural effusion with existence of fibrous stripes^29. Peripheral blood was taken from patients on D1, D3, Dx and/or Dend for the determination of viral load by one-step RT-ddPCR, SARS-CoV-2-specific IgM and IgG by paramagnetic particle chemiluminescent immunoassay (CLIA) and cytokines measurements by Luminex FlEXMAP 3D system. Every participant's data is filled in one case record form (CRF). All the CRF tables were inputted and saved by researchers into an electronic data capture system (EDCS) and validated by a trial staff, including demographics, medical history, daily clinical findings, oximetric measurements and laboratory data involving complete blood count, serum biochemical parameters and high sensitivity C-reactive protein (hsCRP) etc.
# Outcomes. The primary safety endpoint was the incidence of serious adverse events occurring up to 28 days. Safety outcomes included adverse events that occurred during treatment, serious adverse events and premature discontinuation of treatment. […]
# [1] = Grade 3-4, listed as ruxolitinib
smiles,measurement,setting,value
"N#CC[C@H](C1CCCC1)n1cc(-c2ncnc3[nH]ccc23)cn1 [Ruxolitinib, (3R)-3-cyclopentyl-3-[4-(7H-pyrrolo[2,3-d]pyrimidin-4-yl)pyrazol-1-yl]propanenitrile]","ALT increase, % patients",Any Grade,(35.0%)
same,"ALT increase, n patients",Any Grade,7
same,"AST increase, % patients",Any Grade,(15.0%)
same,"AST increase, n patients",Any Grade,3
same,"Acute heart failure, n patients",Any Grade,0
same,"Alkaline phosphatase increase, % patients",Any Grade,(10.0%)
same,"Alkaline phosphatase increase, n patients",Any Grade,2
same,"Anemia, % patients",Any Grade,(55.0%)
same,"Anemia, n patients",Any Grade,11
same,"Chemical laboratory abnormalities, % patients",Any Grade,(50.0%)
same,"Chemical laboratory abnormalities, n patients",Any Grade,10
same,"Decreased appetite, % patients",Any Grade,(5.0%)
same,"Decreased appetite, n patients",Any Grade,1
same,"Dizziness, % patients",Any Grade,(10.0%)
same,"Dizziness, n patients",Any Grade,2
same,"Headache, % patients",Any Grade,(5.0%)
same,"Headache, n patients",Any Grade,1
same,"Hematological adverse events, % patients",Any Grade,(65.0%)
same,"Hematological adverse events, n patients",Any Grade,13
same,"Hypercholesterolemia, % patients",Any Grade,(20.0%)
same,"Hypercholesterolemia, n patients",Any Grade,4
same,"Hypertension, % patients",Any Grade,(5.0%)
same,"Hypertension, n patients",Any Grade,1
same,"Hypertriglyceridemia, n patients",Any Grade,0
same,"Hypoalbuminemia, % patients",Any Grade,(5.0%)
same,"Hypoalbuminemia, n patients",Any Grade,1
same,"Hypocalcemia, % patients",Any Grade,(5.0%)
same,"Hypocalcemia, n patients",Any Grade,1
same,"Hypochloremia, % patients",Any Grade,(5.0%)
same,"Hypochloremia, n patients",Any Grade,1
same,"Hypokalemia, % patients",Any Grade,(5.0%)
same,"Hypokalemia, n patients",Any Grade,1
same,"Lymphocytopenia, % patients",Any Grade,(5.0%)
same,"Lymphocytopenia, n patients",Any Grade,1
same,"Nausea, % patients",Any Grade,(10.0%)
same,"Nausea, n patients",Any Grade,2
same,"Neutrocytopenia, % patients",Any Grade,(5.0%)
same,"Neutrocytopenia, n patients",Any Grade,1
same,"Rash, % patients",Any Grade,(10.0%)
same,"Rash, n patients",Any Grade,2
same,"Secondary Infection, n patients",Any Grade,0
same,"Sepsis, n patients",Any Grade,0
same,"Serious adverse events, n patients",Any Grade,0
same,"Shock, n patients",Any Grade,0
same,"Thrombocytopenia, % patients",Any Grade,(20.0%)
same,"Thrombocytopenia, n patients",Any Grade,4
same,"γ-GT increase, % patients",Any Grade,(10.0%)
same,"γ-GT increase, n patients",Any Grade,2
same,"Adverse events, % patients",Any Grade,(35.0%)
same,"Adverse events, n patients",Any Grade,7
same,"ALT increase, % patients",Grade 1-2,(35.0%)
same,"ALT increase, n patients",Grade 1-2,7
same,"AST increase, % patients",Grade 1-2,(15.0%)
same,"AST increase, n patients",Grade 1-2,3
same,"Acute heart failure, n patients",Grade 1-2,0
same,"Alkaline phosphatase increase, % patients",Grade 1-2,(10.0%)
same,"Alkaline phosphatase increase, n patients",Grade 1-2,2
same,"Anemia, % patients",Grade 1-2,(55.0%)
same,"Anemia, n patients",Grade 1-2,11
same,"Chemical laboratory abnormalities, % patients",Grade 1-2,(50.0%)
same,"Chemical laboratory abnormalities, n patients",Grade 1-2,10
same,"Decreased appetite, % patients",Grade 1-2,(5.0%)
same,"Decreased appetite, n patients",Grade 1-2,1
same,"Dizziness, % patients",Grade 1-2,(10.0%)
same,"Dizziness, n patients",Grade 1-2,2
same,"Headache, % patients",Grade 1-2,(5.0%)
same,"Headache, n patients",Grade 1-2,1
same,"Hematological adverse events, % patients",Grade 1-2,(60.0%)
same,"Hematological adverse events, n patients",Grade 1-2,12
same,"Hypercholesterolemia, % patients",Grade 1-2,(20.0%)
same,"Hypercholesterolemia, n patients",Grade 1-2,4
same,"Hypertension, n patients",Grade 1-2,0
same,"Hypertriglyceridemia, n patients",Grade 1-2,0
same,"Hypoalbuminemia, % patients",Grade 1-2,(5.0%)
same,"Hypoalbuminemia, n patients",Grade 1-2,1
same,"Hypocalcemia, % patients",Grade 1-2,(5.0%)
same,"Hypocalcemia, n patients",Grade 1-2,1
same,"Hypochloremia, % patients",Grade 1-2,(5.0%)
same,"Hypochloremia, n patients",Grade 1-2,1
same,"Hypokalemia, % patients",Grade 1-2,(5.0%)
same,"Hypokalemia, n patients",Grade 1-2,1
same,"Lymphocytopenia, % patients",Grade 1-2,(5.0%)
same,"Lymphocytopenia, n patients",Grade 1-2,1
same,"Nausea, % patients",Grade 1-2,(10.0%)
same,"Nausea, n patients",Grade 1-2,2
same,"Neutrocytopenia, % patients",Grade 1-2,(5.0%)
same,"Neutrocytopenia, n patients",Grade 1-2,1
same,"Rash, % patients",Grade 1-2,(10.0%)
same,"Rash, n patients",Grade 1-2,2
same,"Secondary Infection, n patients",Grade 1-2,0
same,"Sepsis, n patients",Grade 1-2,0
same,"Serious adverse events, n patients",Grade 1-2,0
same,"Shock, n patients",Grade 1-2,0
same,"Thrombocytopenia, % patients",Grade 1-2,(20.0%)
same,"Thrombocytopenia, n patients",Grade 1-2,4
same,"γ-GT increase, % patients",Grade 1-2,(10.0%)
same,"γ-GT increase, n patients",Grade 1-2,2
same,"Adverse events, % patients",Grade 1-2,(35.0%)
same,"Adverse events, n patients",Grade 1-2,7
same,"ALT increase, n patients",Grade 3-4,0
same,"AST increase, n patients",Grade 3-4,0
same,"Acute heart failure, n patients",Grade 3-4,0
same,"Alkaline phosphatase increase, n patients",Grade 3-4,0
same,"Anemia, n patients",Grade 3-4,0
same,"Chemical laboratory abnormalities, n patients",Grade 3-4,0
same,"Decreased appetite, n patients",Grade 3-4,0
same,"Dizziness, n patients",Grade 3-4,0
same,"Headache, n patients",Grade 3-4,0
same,"Hematological adverse events, % patients",Grade 3-4,5.0%
same,"Hematological adverse events, n patients",Grade 3-4,1
same,"Hypercholesterolemia, n patients",Grade 3-4,0
same,"Hypertension, % patients",Grade 3-4,5.0%
same,"Hypertension, n patients",Grade 3-4,1
same,"Hypertriglyceridemia, n patients",Grade 3-4,0
same,"Hypoalbuminemia, n patients",Grade 3-4,0
same,"Hypocalcemia, n patients",Grade 3-4,0
same,"Hypochloremia, n patients",Grade 3-4,0
same,"Hypokalemia, n patients",Grade 3-4,0
same,"Lymphocytopenia, % patients",Grade 3-4,5.0%
same,"Lymphocytopenia, n patients",Grade 3-4,1
same,"Nausea, n patients",Grade 3-4,0
same,"Neutrocytopenia, n patients",Grade 3-4,0
same,"Rash, n patients",Grade 3-4,0
same,"Secondary Infection, n patients",Grade 3-4,0
same,"Sepsis, n patients",Grade 3-4,0
same,"Serious adverse events, n patients",Grade 3-4,0
same,"Shock, n patients",Grade 3-4,0
same,"Thrombocytopenia, n patients",Grade 3-4,0
same,"γ-GT increase, n patients",Grade 3-4,0
same,"Hematological adverse events, n patients",[1],2
same,"Hypertension, n patients",[1],One
same,"Adverse events, n patients",Grade 3-4,0
same,"Adverse events at grade 3-4, number of events","all ruxolitinib recipients, lymphocytopenia and hypertension, transient and reversible",two
same,"Patients who reported adverse events, %","from randomization to D28, primary safety endpoint",80%
same,Unexpected adverse events,primary safety endpoint,No significant unexpected adverse events
same,Tolerability,ruxolitinib with SoC treatment,well tolerated
